# Experimental data from patent US9630977B2, “Cephalosporin derivatives and pharmaceutical compositions thereof” (Legochem Biosciences, Inc., priority 2011, dated 2017).
# Test system: A. baumannii 46
# Assay: In vitro antibacterial activity test (broth microdilution)
# Type: cell-based
# Details: Acinetobacter baumannii; A. baumannii 46; read-out: MIC90
# Protocol: (§1) To evaluate antibacterial activity of each of the compounds of Examples 1 to 68, in vitro antibacterial activity test was performed.
# (§2) The in vitro antibacterial activity was evaluated by measuring MIC90 (ug/mL) of each of the compounds of Examples 1 to 68, which is defined as the lowest concentration of an antibiotic that will inhibit the visible growth of 90% of microorganisms after incubation as compared with a control group to which the antibiotic is not treated. MIC90 values were measured by the broth microdilution method developed by the Clinical and Laboratory Standards Institute (CLSI) (see CLSI M7-A5, Methods for Dilution Antimicrobial Susceptibility Test for Bacteria that Grow Aerobically-Fifth Edition (2000): CLSI, Villanova, Pa.).
# (§3) In vitro antibacterial activity was measured with respect to the following 19 clinical isolates: M. catarrhalis; P. aeruginosa (5 strains); K. pneumoniae (6 strains); A. baumannii (3 strains); E. coli (2 strains); A. calcoaceticus; and E. cloacae.
# (§4) Test compounds each (the cephalosporin derivative compounds prepared in Examples 1 to 68) were dissolved in DMSO at the concentration of 10,240 ug/mL, were diluted by two fold with DMSO, and then were diluted by twenty fold with sterilized distilled water. The final concentration in the antibacterial activity test was in the range of […] to 128 ug/mL, and the final concentration of DMSO used as an adjuvant was 2.5% (V/V).
row,SMILES,MIC90
1,CC(C)(O/N=C(\C(=O)N[C@@H]1C(=O)N2C(C(=O)[O-])=C(/C=C/C[n+]3cnc(N)c(NCCCCNC(=O)c4cc(=O)c(O)cn4O)c3)CSC12)c1csc(N)n1)C(=O)O (stereo partly shown) [Compound 23],4 µg/mL

# Test system: A. baumannii 49
# Assay: as above
# Type: cell-based
# Details: Acinetobacter baumannii; A. baumannii 49; read-out: MIC90
# Protocol: as §1, §2, §3, §4
row,SMILES,MIC90
1,CC(C)(O/N=C(\C(=O)N[C@@H]1C(=O)N2C(C(=O)[O-])=C(/C=C/C[n+]3cnc(N)c(NCCCCNC(=O)c4cc(=O)c(O)cn4O)c3)CSC12)c1csc(N)n1)C(=O)O (stereo partly shown) [Compound 23],> 128 µg/mL

# Test system: A. baumannii 52
# Assay: as above
# Type: cell-based
# Details: Acinetobacter baumannii; A. baumannii 52; read-out: MIC90
# Protocol: as §1, §2, §3, §4
row,SMILES,MIC90
1,CC(C)(O/N=C(\C(=O)N[C@@H]1C(=O)N2C(C(=O)[O-])=C(/C=C/C[n+]3cnc(N)c(NCCCCNC(=O)c4cc(=O)c(O)cn4O)c3)CSC12)c1csc(N)n1)C(=O)O (stereo partly shown) [Compound 23],> 128 µg/mL

# Test system: A. calcoaceticus ATCC15473
# Assay: as above
# Type: cell-based
# Details: Acinetobacter calcoaceticus; A. calcoaceticus ATCC15473; read-out: MIC90
# Protocol: as §1, §2, §3, §4
row,SMILES,MIC90
1,CC(C)(O/N=C(\C(=O)N[C@@H]1C(=O)N2C(C(=O)[O-])=C(/C=C/C[n+]3cnc(N)c(NCCCCNC(=O)c4cc(=O)c(O)cn4O)c3)CSC12)c1csc(N)n1)C(=O)O (stereo partly shown) [Compound 23],1 µg/mL

# Test system: E. cloacae β19
# Assay: as above
# Type: cell-based
# Details: Enterobacter cloacae, read-out: MIC90
# Protocol: as §1, §2, §3, §4
row,SMILES,MIC90
1,CC(C)(O/N=C(\C(=O)N[C@@H]1C(=O)N2C(C(=O)[O-])=C(/C=C/C[n+]3cnc(N)c(NCCCCNC(=O)c4cc(=O)c(O)cn4O)c3)CSC12)c1csc(N)n1)C(=O)O (stereo partly shown) [Compound 23],2 µg/mL

# Test system: E. coli AG100
# Assay: as above
# Type: cell-based
# Details: Escherichia coli, AG100, E. coli AG100; read-out: MIC90
# Protocol: as §1, §2, §3, §4
row,SMILES,MIC90
1,CC(C)(O/N=C(\C(=O)N[C@@H]1C(=O)N2C(C(=O)[O-])=C(/C=C/C[n+]3cnc(N)c(NCCCCNC(=O)c4cc(=O)c(O)cn4O)c3)CSC12)c1csc(N)n1)C(=O)O (stereo partly shown) [Compound 23],< 0.0625 µg/mL

# Test system: E. coli β4
# Assay: as above
# Type: cell-based
# Details: Escherichia coli, read-out: MIC90
# Protocol: as §1, §2, §3, §4
row,SMILES,MIC90
1,CC(C)(O/N=C(\C(=O)N[C@@H]1C(=O)N2C(C(=O)[O-])=C(/C=C/C[n+]3cnc(N)c(NCCCCNC(=O)c4cc(=O)c(O)cn4O)c3)CSC12)c1csc(N)n1)C(=O)O (stereo partly shown) [Compound 23],< 0.0625 µg/mL

# Test system: K. pneumoniae 2011E
# Assay: as above
# Type: cell-based
# Details: Klebsiella pneumoniae, 2011E, K. pneumoniae 2011E; read-out: MIC90
# Protocol: as §1, §2, §3, §4
row,SMILES,MIC90
1,CC(C)(O/N=C(\C(=O)N[C@@H]1C(=O)N2C(C(=O)[O-])=C(/C=C/C[n+]3cnc(N)c(NCCCCNC(=O)c4cc(=O)c(O)cn4O)c3)CSC12)c1csc(N)n1)C(=O)O (stereo partly shown) [Compound 23],1 µg/mL

# Test system: K. pneumoniae β10
# Assay: as above
# Type: cell-based
# Details: Klebsiella pneumoniae; K. pneumoniae β10; read-out: MIC90
# Protocol: as §1, §2, §3, §4
row,SMILES,MIC90
1,CC(C)(O/N=C(\C(=O)N[C@@H]1C(=O)N2C(C(=O)[O-])=C(/C=C/C[n+]3cnc(N)c(NCCCCNC(=O)c4cc(=O)c(O)cn4O)c3)CSC12)c1csc(N)n1)C(=O)O (stereo partly shown) [Compound 23],< 0.0625 µg/mL

# Test system: K. pneumoniae β11
# Assay: as above
# Type: cell-based
# Details: Klebsiella pneumoniae; K. pneumoniae β11; read-out: MIC90
# Protocol: as §1, §2, §3, §4
row,SMILES,MIC90
1,CC(C)(O/N=C(\C(=O)N[C@@H]1C(=O)N2C(C(=O)[O-])=C(/C=C/C[n+]3cnc(N)c(NCCCCNC(=O)c4cc(=O)c(O)cn4O)c3)CSC12)c1csc(N)n1)C(=O)O (stereo partly shown) [Compound 23],64 µg/mL

# Test system: K. pneumoniae β13
# Assay: as above
# Type: cell-based
# Details: Klebsiella pneumoniae, K. pneumoniae β13; read-out: MIC90
# Protocol: as §1, §2, §3, §4
row,SMILES,MIC90
1,CC(C)(O/N=C(\C(=O)N[C@@H]1C(=O)N2C(C(=O)[O-])=C(/C=C/C[n+]3cnc(N)c(NCCCCNC(=O)c4cc(=O)c(O)cn4O)c3)CSC12)c1csc(N)n1)C(=O)O (stereo partly shown) [Compound 23],< 0.0625 µg/mL

# Test system: K. pneumoniae β14
# Assay: as above
# Type: cell-based
# Details: Klebsiella pneumoniae, read-out: MIC90
# Protocol: as §1, §2, §3, §4
row,SMILES,MIC90
1,CC(C)(O/N=C(\C(=O)N[C@@H]1C(=O)N2C(C(=O)[O-])=C(/C=C/C[n+]3cnc(N)c(NCCCCNC(=O)c4cc(=O)c(O)cn4O)c3)CSC12)c1csc(N)n1)C(=O)O (stereo partly shown) [Compound 23],4 µg/mL

# Test system: K. pneumoniae β9
# Assay: as above
# Type: cell-based
# Details: Klebsiella pneumoniae, K. pneumoniae β9; read-out: MIC90
# Protocol: as §1, §2, §3, §4
row,SMILES,MIC90
1,CC(C)(O/N=C(\C(=O)N[C@@H]1C(=O)N2C(C(=O)[O-])=C(/C=C/C[n+]3cnc(N)c(NCCCCNC(=O)c4cc(=O)c(O)cn4O)c3)CSC12)c1csc(N)n1)C(=O)O (stereo partly shown) [Compound 23],< 0.0625 µg/mL

# Test system: M. catarrhalis 2524
# Assay: as above
# Type: cell-based
# Details: Moraxella catarrhalis; M. catarrhalis 2524; read-out: MIC90
# Protocol: as §1, §2, §3, §4
row,SMILES,MIC90
1,CC(C)(O/N=C(\C(=O)N[C@@H]1C(=O)N2C(C(=O)[O-])=C(/C=C/C[n+]3cnc(N)c(NCCCCNC(=O)c4cc(=O)c(O)cn4O)c3)CSC12)c1csc(N)n1)C(=O)O (stereo partly shown) [Compound 23],0.25 µg/mL

# Test system: P. aeruginosa 1912E
# Assay: as above
# Type: cell-based
# Details: Pseudomonas aeruginosa, 1912E, read-out: MIC90
# Protocol: as §1, §2, §3, §4
row,SMILES,MIC90
1,CC(C)(O/N=C(\C(=O)N[C@@H]1C(=O)N2C(C(=O)[O-])=C(/C=C/C[n+]3cnc(N)c(NCCCCNC(=O)c4cc(=O)c(O)cn4O)c3)CSC12)c1csc(N)n1)C(=O)O (stereo partly shown) [Compound 23],1 µg/mL

# Test system: P. aeruginosa 37
# Assay: as above
# Type: cell-based
# Details: Pseudomonas aeruginosa, 37, P. aeruginosa 37; read-out: MIC90
# Protocol: as §1, §2, §3, §4
row,SMILES,MIC90
1,CC(C)(O/N=C(\C(=O)N[C@@H]1C(=O)N2C(C(=O)[O-])=C(/C=C/C[n+]3cnc(N)c(NCCCCNC(=O)c4cc(=O)c(O)cn4O)c3)CSC12)c1csc(N)n1)C(=O)O (stereo partly shown) [Compound 23],0.25 µg/mL

# Test system: P. aeruginosa 40
# Assay: as above
# Type: cell-based
# Details: Pseudomonas aeruginosa, 40, P. aeruginosa 40; read-out: MIC90
# Protocol: as §1, §2, §3, §4
row,SMILES,MIC90
1,CC(C)(O/N=C(\C(=O)N[C@@H]1C(=O)N2C(C(=O)[O-])=C(/C=C/C[n+]3cnc(N)c(NCCCCNC(=O)c4cc(=O)c(O)cn4O)c3)CSC12)c1csc(N)n1)C(=O)O (stereo partly shown) [Compound 23],0.5 µg/mL

# Test system: P. aeruginosa 43
# Assay: as above
# Type: cell-based
# Details: Pseudomonas aeruginosa; P. aeruginosa 43; read-out: MIC90
# Protocol: as §1, §2, §3, §4
row,SMILES,MIC90
1,CC(C)(O/N=C(\C(=O)N[C@@H]1C(=O)N2C(C(=O)[O-])=C(/C=C/C[n+]3cnc(N)c(NCCCCNC(=O)c4cc(=O)c(O)cn4O)c3)CSC12)c1csc(N)n1)C(=O)O (stereo partly shown) [Compound 23],1 µg/mL

# Test system: P. aeruginosa 6065Y
# Assay: as above
# Type: cell-based
# Details: Pseudomonas aeruginosa, read-out: MIC90
# Protocol: as §1, §2, §3, §4
row,SMILES,MIC90
1,CC(C)(O/N=C(\C(=O)N[C@@H]1C(=O)N2C(C(=O)[O-])=C(/C=C/C[n+]3cnc(N)c(NCCCCNC(=O)c4cc(=O)c(O)cn4O)c3)CSC12)c1csc(N)n1)C(=O)O (stereo partly shown) [Compound 23],2 µg/mL
